Test results: patent publication US7544497B2, “Compositions for manipulating the lifespan and stress response of cells and organisms” (President and Fellows of Harvard College, priority 2003, dated 2009)

Experiments:
D. melanogaster = D. melanogaster adult survival assay; format: in vivo
Procedure: Survival assays were conducted independently with adult D. melanogaster in two laboratories. In the first laboratory, all trials used an yw marked wild-type strain. […] Newly eclosed adults were placed in 1L demography cages with approximately 75 males and 75 females. Three to four replicate 1L demography cages were used for each treatment group in each trial. Every two days, dead flies were removed and scored, and food vials were replenished. Food vials contained cornmeal-sugar-yeast diet with SAF yeast as either 2% or 3% by weight. […] Fresh stock solutions and adult media were prepared weekly. In the second laboratory, lifespan trials were conducted with the wild type strain Canton-S, dSir2^4.5 and […], University of Oregon), […], Stockholm University, Sweden), and dSir2^KG00871 (Drosophila Stock Center, Bloomington, Ind.). Larvae for all tests were reared on standard cornmeal-sugar-yeast diet. […] In all trials, 20 males with 20 females were placed into each of 10 vials/treatment group. Every two days, flies were passed into new vials and dead flies were counted. […] Fresh stock solution and adult media was prepared weekly.

recombinant SIR-2.1 = biological target: T1, recombinant SIR-2.1 (Caenorhabditis elegans, UniProt Q21921); experiment: SIR-2.1 deacetylation assay (Fluor de Lys)
T1 sequence (Q21921 1-607): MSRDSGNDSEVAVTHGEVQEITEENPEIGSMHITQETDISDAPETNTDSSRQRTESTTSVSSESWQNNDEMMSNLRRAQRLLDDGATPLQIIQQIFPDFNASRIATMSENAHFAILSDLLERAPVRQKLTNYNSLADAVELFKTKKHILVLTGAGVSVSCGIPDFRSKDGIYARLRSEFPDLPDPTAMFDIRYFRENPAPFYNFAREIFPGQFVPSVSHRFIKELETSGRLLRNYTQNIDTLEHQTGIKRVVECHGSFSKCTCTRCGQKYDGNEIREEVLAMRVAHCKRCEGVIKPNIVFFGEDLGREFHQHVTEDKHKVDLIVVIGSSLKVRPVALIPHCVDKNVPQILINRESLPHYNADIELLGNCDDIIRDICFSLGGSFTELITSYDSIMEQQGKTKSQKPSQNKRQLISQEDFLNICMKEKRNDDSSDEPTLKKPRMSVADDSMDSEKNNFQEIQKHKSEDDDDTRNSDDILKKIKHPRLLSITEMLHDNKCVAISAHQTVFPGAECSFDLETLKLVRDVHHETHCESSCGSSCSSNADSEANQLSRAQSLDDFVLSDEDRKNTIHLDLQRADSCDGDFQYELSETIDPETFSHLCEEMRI

recombinant human SIRT1 = biological target: T2, recombinant human SIRT1 (Homo sapiens, UniProt Q96EB6); experiment: SIRT1 fluorescent deacetylation assay (p53-382 acetylated peptide substrate); format: biochemical; conditions: 100 μM resveratrol
T2 sequence (Q96EB6 1-747): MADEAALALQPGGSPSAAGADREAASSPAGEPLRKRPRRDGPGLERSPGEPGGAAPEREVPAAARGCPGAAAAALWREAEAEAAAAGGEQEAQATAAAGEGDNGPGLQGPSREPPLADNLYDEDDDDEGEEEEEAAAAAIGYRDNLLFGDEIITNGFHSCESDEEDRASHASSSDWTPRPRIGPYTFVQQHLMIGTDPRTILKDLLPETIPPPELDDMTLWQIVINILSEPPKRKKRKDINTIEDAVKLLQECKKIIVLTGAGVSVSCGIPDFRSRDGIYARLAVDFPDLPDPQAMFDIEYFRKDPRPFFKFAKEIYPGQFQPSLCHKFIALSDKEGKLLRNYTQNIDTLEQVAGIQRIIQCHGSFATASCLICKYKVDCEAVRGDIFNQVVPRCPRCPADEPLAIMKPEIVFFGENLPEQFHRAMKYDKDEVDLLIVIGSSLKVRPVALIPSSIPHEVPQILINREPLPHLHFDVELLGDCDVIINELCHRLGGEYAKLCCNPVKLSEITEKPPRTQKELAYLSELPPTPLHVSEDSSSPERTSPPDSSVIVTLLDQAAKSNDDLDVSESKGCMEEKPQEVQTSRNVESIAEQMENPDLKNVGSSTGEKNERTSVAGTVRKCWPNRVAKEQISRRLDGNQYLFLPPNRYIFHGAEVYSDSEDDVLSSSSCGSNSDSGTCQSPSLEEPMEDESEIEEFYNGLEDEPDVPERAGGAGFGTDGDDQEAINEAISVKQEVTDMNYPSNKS
Description: To identify compounds that modulate SIRT1 activity, we screened a number of small molecule libraries using a fluorescent deacetylation assay in 96-well plates^26. The substrate used in the assay was a fluorogenic peptide based on the sequence encompassing the p53-K382 acetylation site, a known target of SIRT1 in vivo^20,21,27. This substrate was preferred over a variety of other fluorogenic peptide substrates that were based on other known HDAC targets (FIG. 5). The small molecule libraries included analogues of nicotinamide, ε-acetyl lysine, NAD^+, nucleotides, nucleotide analogues and purinergic ligands. From the initial screen, several sirtuin inhibitors were found (Supplementary Table 7). However, the most striking outcome was the identification of two compounds, quercetin and piceatannol, that stimulated SIRT1 activity five and eight-fold, respectively (Table 1). Both quercetin and piceatannol have been previously identified as protein kinase inhibitors^28,29.
His6-tagged recombinant SIRT1 and GST-tagged recombinant Sir2 were prepared as previously described^26. From 0.1 to 1 μg of SIRT1 and 1.5 μg of Sir2 were used per deacetylation assay (in 50 μl total reaction) as previously described^26. SIRT1 assays and certain of those for Sir2 employed the p53-382 acetylated substrate (‘Fluor de Lys-SIRT1’, BIOMOL) rather than FdL.
Themed compound libraries (BIOMOL) were used for primary and secondary screening. […] For water soluble compounds and negative controls, 1% v/v DMSO was added to the assay. […] HeLa cells were grown and the cellular deacetylation assays were performed and read, as above, but in full-volume 96-well microplates (Corning Costar 3595). Unless otherwise indicated all initial rate measurements were means of three or more replicates, obtained with single incubation times, at which point 5% or less of the substrate initially present had been deacetylated. Calculation of net fluorescence increases included subtraction of a blank value, which in the case of Sir2 was obtained by omitting the enzyme from the reaction and in the case of SIRT1 by adding an inhibitor (200 μM suramin or 1 mM nicotinamide) to the reaction prior to the acetylated substrate. […] All error bars represent the standard error of the mean.
All SIRT1 rate measurements used in the calculation of “Ratio to Control Rate” were obtained with 25 μM NAD^+ and 25 μM p53-382 acetylated peptide substrate were performed as described above and in K. T. Howitz et al. Nature (2003) 425: 191. All ratio data were calculated from experiments in which the total deacetylation in the control reaction was 0.25-1.25 μM peptide or 1-5% of the initial concentration of acetylated peptide.

## Oc1ccc(/C=C/c2cc(O)cc(O)c2)cc1 [Resveratrol, 3,5,4′-Trihydroxy-trans-stilbene]
D. melanogaster; Canton-S/dSir2^KG0087
  lifespan increase (up to): up to 17%
D. melanogaster; dSir2^4.5/dSir2^5.26 or dSir2^17/dSir2^KG00871, 100 μM
  lifespan in flies lacking or severely decreased in dSir2: failed to extend lifespan
D. melanogaster; dSir2^KG0087/dSir2^KG0087
  longevity increase in flies homozygous for a hypomorphic dSir2 allele: small but statistically significant amount
D. melanogaster; restricted diet
  longevity on restricted diet: neither resveratrol nor fisetin further increased longevity
D. melanogaster; wild type, males and females, independent tests
  lifespan extension (up to): up to 29%
Recombinant SIR-2.1; 100 μM resveratrol, 10 μM Fluor de Lys
  effect on Km of SIR-2.1 for NAD+: lowered
Recombinant SIR-2.1; dose-dependent, 200 μM NAD+, 10 μM FdL
  stimulation of deacetylation, SIR-2.1 (up to): up to 2.5 fold
Recombinant human SIRT1; 1 mM p53-382 acetylated peptide, control 1863
  Vmax (+resveratrol), NAD+ varied: 1749 AFU/min.
Recombinant human SIRT1; 3 mM NAD+, control 1107
  Vmax (+resveratrol), p53-382 acetylated peptide varied: 926 AFU/min.
